In patent publication US12091402B2 (Avilar Therapeutics, Inc., priority 2021, dated 2024):
Read-outs that look alike come from different tables or passages of the source.

How the values were obtained:
[1] = target: T1, ASGPR receptor on the cell surface (HepG2 cells) (Homo sapiens, UniProt P07306); experiment: Ternary complex formation assay (flow cytometry, HepG2); format: cell-based
T1 construct: host or cells: HepG2
T1 sequence (P07306 1-291): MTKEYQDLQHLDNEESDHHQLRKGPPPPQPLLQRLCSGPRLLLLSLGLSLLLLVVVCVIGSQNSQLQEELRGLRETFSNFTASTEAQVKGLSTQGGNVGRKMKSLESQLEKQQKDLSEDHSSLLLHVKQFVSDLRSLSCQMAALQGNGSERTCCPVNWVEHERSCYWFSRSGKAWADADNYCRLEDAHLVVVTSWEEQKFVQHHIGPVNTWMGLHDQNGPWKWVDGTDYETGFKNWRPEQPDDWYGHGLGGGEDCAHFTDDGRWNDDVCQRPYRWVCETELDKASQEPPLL
T1 sequence (P07307 1-311 partner): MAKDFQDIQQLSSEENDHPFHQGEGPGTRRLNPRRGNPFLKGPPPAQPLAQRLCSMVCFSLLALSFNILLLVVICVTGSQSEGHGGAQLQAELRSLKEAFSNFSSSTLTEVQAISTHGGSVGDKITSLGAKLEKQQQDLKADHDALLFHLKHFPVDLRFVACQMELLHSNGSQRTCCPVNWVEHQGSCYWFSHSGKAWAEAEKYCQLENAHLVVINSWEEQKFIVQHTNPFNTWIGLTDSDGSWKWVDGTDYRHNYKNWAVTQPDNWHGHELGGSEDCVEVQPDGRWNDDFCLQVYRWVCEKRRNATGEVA
From the text: The ternary complex formation assay is designed to identify the concentration of Degrader required to form a complex between the degrader, a constant concentration of fluorescently-labeled antibody and the ASGPR receptor on the cell surface. The peak mean fluorescence intensity (MFI) occurs at the optimal degrader concentration for ternary complex formation. Sub-optimal concentrations of degrader (too much or too little) results in fewer complexes formed and a reduced […].
Human IgG (Sigma-Aldrich, 14506) was covalently labeled with Alexa Fluor 488 using the Alexa Fluor™ 488 Protein Labeling Kit (Thermo Fisher, A10235) following the manufacturer's instructions. HepG2 cells (ATCC, HIB-8065) were cultured to about 70% confluence and harvested by trypsinization. Single cell suspensions of HepG2 cells were plated in 96 well plates at 1×10^5 cells/well in cell culture media (DMEM supplemented with […]) and placed at 4° C. For studies using human IgG, cells were incubated with 100 nM AF488-labeled anti-human IgG and serial dilutions of IgG-based degrader for 1 hour at 4° C. For studies using DNP, cells were incubated with 100 nM AF488-labeled polyclonal rabbit anti-dinitrophenyl (DNP) antibodies (ThermoFisher) and serial dilutions of DNP-based degrader for 1 hour at 4° C. After washing once with ice-cold PBS containing 0.1% BSA and 0.1% sodium azide, cells were resuspended in 150 uL PBS+0.1% BSA and cell-associated AF488 fluorescence was measured by flow cytometry using the iQue® Screener PLUS Flow Cytometer (IntelliCyt).

HepG2 cells = experiment: Cellular uptake assay of AF488-labeled antibody (HepG2); format: cell-based
How it was run: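 HepG2 cells given 100 nM AF488-labeled human IgG or DNP antibody plus serial dilutions of matching degrader (0.1% DMSO final), 6 h at 37° C. Methanol-fixed, DAPI-stained and imaged by high-content analysis. Value is the fraction of AF488-positive cells over total DAPI-counted cells.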

ASGPR = target: T2, ASGPR (Homo sapiens, UniProt P07306); experiment: Affinity to ASGPR by surface plasmon resonance (SPR)
T2 sequence (P07306 1-291): T1 sequence (P07306 1-291)

[2] = Ternary Complex EC50 (nM), HepG2 cells, 100 nM AF488-labeled antibody, 1 hour at 4° C., class symbols
[3] = Homo sapiens, HepG2, 6 h, read-out: Uptake Assay EC50 (nM)
[4] = HepG2 cells, read-out: Uptake EC50
[5] = HepG2 cells, 100 nM AF488-labeled antibody, 37° C. for 6 hours, class symbols, read-out: Uptake Assay EC50

Compound	EC50 [1, 2] [nM]	EC50 (HepG2 cells; [3]) [nM]	Kd (ASGPR) [nM]	EC50 [1] [nM]	EC50 (HepG2 cells; [5]) [nM]	further results
O=C(CCOCC(COCCC(=O)NCCOCCOCCOCCOC[C@@]12CO[C@@H](O1)[C@H](Nc1nc(Cl)ns1)[C@@H](O)[C@H]2O)NC(=O)COCCOCCOCCNc1ccc([N+](=O)[O-])cc1[N+](=O)[O-])NCCOCCOCCOCCOC[C@@]12CO[C@@H](O1)[C@H](Nc1nc(Cl)ns1)[C@@H](O)[C@H]2O [Compound 30, 3,3′-((2-(2-(2-(2-(2-((2,4-dinitrophenyl)amino)ethoxy)ethoxy)ethoxy)acetamido)propane-1,3-diyl)bis(oxy))bis(N-(1-((1S,2R,3R,4R,5S)-4-((3-chloro-1,2,4-thiadiazol-5-yl)amino)-2,3-dihydroxy-6,8-dioxabicyclo[3.2.1]octan-1-yl)-2,5,8,11-tetraoxatridecan-13-yl)propanamide)]	< 100	< 100	< 100			
CC(C)C[C@@H]1NC(=O)[C@H](Cc2c[nH]cn2)NC(=O)[C@H](Cc2c[nH]c3ccccc23)NC(=O)[C@H](C)NC(=O)[C@@H](NC(=O)[C@H](CC(=O)O)NC(=O)CCOCCOCCOCCOCCNC(=O)CCCc2cn(CCCCCC(=O)NC(COCCC(=O)NCCOCCOCCOCCOC[C@H]3OC[C@H](Nc4nccc(C(F)(F)F)n4)[C@@H](O)[C@H]3O)(COCCC(=O)NCCOCCOCCOCCOC[C@H]3OC[C@H](Nc4nccc(C(F)(F)F)n4)[C@@H](O)[C@H]3O)COCCC(=O)NCCOCCOCCOCCOC[C@H]3OC[C@H](Nc4nccc(C(F)(F)F)n4)[C@@H](O)[C@H]3O)nn2)CSSC[C@@H](C(=O)N[C@H](C(N)=O)[C@@H](C)O)NC(=O)[C@H](Cc2c[nH]c3ccccc23)NC(=O)[C@H](C(C)C)NC(=O)[C@H](CC(C)C)NC(=O)[C@H](CCC(=O)O)NC(=O)CNC1=O [Compound 90]			< 100	< 100		EC50 (HepG2 cells; [4]): < 100 nM
CC(C)C[C@@H]1NC(=O)[C@H](Cc2c[nH]cn2)NC(=O)[C@H](Cc2c[nH]c3ccccc23)NC(=O)[C@H](C)NC(=O)[C@@H](NC(=O)[C@H](CC(=O)O)NC(=O)CCOCCOCCOCCOCCNC(=O)CCCc2cn(CCCCCC(=O)NC(COCCC(=O)NCCOCCOCCOCCOC[C@@H]3CC[C@@H](Nc4nccc(C(F)(F)F)n4)CO3)COCCC(=O)NCCOCCOCCOCCOC[C@@H]3CC[C@@H](Nc4nccc(C(F)(F)F)n4)CO3)nn2)CSSC[C@@H](C(=O)N[C@H](C(N)=O)[C@@H](C)O)NC(=O)[C@H](Cc2c[nH]c3ccccc23)NC(=O)[C@H](C(C)C)NC(=O)[C@H](CC(C)C)NC(=O)[C@H](CCC(=O)O)NC(=O)CNC1=O [Compound 87]			> 1000			EC50 ([1]; HepG2 cells, ternary complex formation, read-out: TCF EC50): > 1000 nM; EC50 (HepG2 cells; [4]): > 1000 nM
O=C(CCOCC(COCCC(=O)NCCOCCOCCOCCOC[C@@]12CO[C@@H](O1)[C@H](Nc1nccc(C(F)(F)F)n1)[C@@H](O)[C@H]2O)NC(=O)COCCOCCOCCNc1ccc([N+](=O)[O-])cc1[N+](=O)[O-])NCCOCCOCCOCCOC[C@@]12CO[C@@H](O1)[C@H](Nc1nccc(C(F)(F)F)n1)[C@@H](O)[C@H]2O [Compound 31, 3,3′-((2-(2-(2-(2-(2-((2,4-dinitrophenyl)amino)ethoxy)ethoxy)ethoxy)acetamido)propane-1,3-diyl)bis(oxy))bis(N-(1-((1S,2R,3R,4R,5S)-2,3-dihydroxy-4-((4-(trifluoromethyl)pyrimidin-2-yl)amino)-6,8-dioxabicyclo[3.2.1]octan-1-yl)-2,5,8,11-tetraoxatridecan-13-yl)propanamide)]	< 100	< 100	< 100			
O=[N+]([O-])c1ccc(NCCOCCOCCOCCOC[C@@]23CO[C@@H](O2)[C@H](Nc2nc(Cl)ns2)[C@@H](O)[C@H]3O)c([N+](=O)[O-])c1 [Compound 27, (1S,2R,3R,4R,5S)-4-((3-chloro-1,2,4-thiadiazol-5-yl)amino)-1-(13-((2,4-dinitrophenyl)amino)-2,5,8,11-tetraoxatridecyl)-6,8-dioxabicyclo[3.2.1]octane-2,3-diol]	< 100	< 100	< 100			
CC(C)C[C@@H]1NC(=O)[C@H](Cc2c[nH]cn2)NC(=O)[C@H](Cc2c[nH]c3ccccc23)NC(=O)[C@H](C)NC(=O)[C@@H]2CSSC[C@H](NC(=O)[C@H](Cc3c[nH]c4ccccc34)NC(=O)[C@H](C(C)C)NC(=O)[C@H](CC(C)C)NC(=O)[C@H](CCC(=O)O)NC(=O)CNC1=O)C(=O)N[C@@H]([C@@H](C)O)C(=O)N1CCC[C@@H]1C(=O)N1C[C@@H](NC(=O)CCOCCOCCOCCNC(=O)CCCc3cn(C[C@@]45CO[C@@H](O4)[C@H](Nc4nc(Cl)ns4)[C@@H](O)[C@H]5O)nn3)C[C@H]1C(=O)N[C@@H](CC(=O)O)C(=O)N2 [Compound 5]				< 100	< 100	
CC(C)C[C@@H]1NC(=O)[C@H](Cc2c[nH]cn2)NC(=O)[C@H](Cc2c[nH]c3ccccc23)NC(=O)[C@H](C)NC(=O)[C@@H]2CSSC[C@H](NC(=O)[C@H](Cc3c[nH]c4ccccc34)NC(=O)[C@H](C(C)C)NC(=O)[C@H](CC(C)C)NC(=O)[C@H](CCC(=O)O)NC(=O)CNC1=O)C(=O)N[C@@H]([C@@H](C)O)C(=O)N1CCC[C@@H]1C(=O)N1C[C@@H](NC(=O)COCCOCCOCC(=O)NC(COCCC(=O)NCCOCCOCCOCCOC[C@H]3OC[C@H](Nc4nccc(C(F)(F)F)n4)[C@@H](O)[C@H]3O)COCCC(=O)NCCOCCOCCOCCOC[C@H]3OC[C@H](Nc4nccc(C(F)(F)F)n4)[C@@H](O)[C@H]3O)C[C@H]1C(=O)N[C@@H](CC(=O)O)C(=O)N2 [Compound 38]			< 100		< 100	EC50 ([1]; HepG2 cells, 100 nM AF488-labeled antibody, 1 hour at 4° C., class symbols, read-out: Ternary Complex EC50): < 100 nM
CC(C)C[C@@H]1NC(=O)[C@H](Cc2cnc[nH]2)NC(=O)[C@H](Cc2c[nH]c3ccccc23)NC(=O)[C@H](C)NC(=O)[C@@H](NC(=O)[C@@H](N)CC(=O)O)CSSC[C@@H](C(=O)N[C@H](C(N)=O)[C@@H](C)O)NC(=O)[C@H](Cc2c[nH]c3ccccc23)NC(=O)[C@H](C(C)C)NC(=O)[C@H](CC(C)C)NC(=O)[C@H](CCC(=O)NCCOCCOCCOCCOCCNC(=O)CCCc2cn(CCCCCC(=O)NC(COCCC(=O)NCCOCCOCCOCCOC[C@H]3OC[C@H](Nc4nccc(C(F)(F)F)n4)[C@@H](O)[C@H]3O)COCCC(=O)NCCOCCOCCOCCOC[C@H]3OC[C@H](Nc4nccc(C(F)(F)F)n4)[C@@H](O)[C@H]3O)nn2)NC(=O)CNC1=O [Compound 2]				< 100	100 to 500	
CC(C)C[C@@H]1NC(=O)[C@H](Cc2c[nH]cn2)NC(=O)[C@H](Cc2c[nH]c3ccccc23)NC(=O)[C@H](C)NC(=O)[C@@H]2CSSC[C@H](NC(=O)[C@H](Cc3c[nH]c4ccccc34)NC(=O)[C@H](C(C)C)NC(=O)[C@H](CC(C)C)NC(=O)[C@H](CCC(=O)O)NC(=O)CNC1=O)C(=O)N[C@@H]([C@@H](C)O)C(=O)N1CCC[C@@H]1C(=O)N1C[C@@H](NC(=O)CCOCCOCCOCCNC(=O)CCCc3cn(CCCCCC(=O)NC(COCCC(=O)NCCOCCOCCOCCOC[C@H]4OC[C@H](Nc5nccc(C(F)(F)F)n5)[C@@H](O)[C@H]4O)COCCC(=O)NCCOCCOCCOCCOC[C@H]4OC[C@H](Nc5nccc(C(F)(F)F)n5)[C@@H](O)[C@H]4O)nn3)C[C@H]1C(=O)N[C@@H](CC(=O)O)C(=O)N2 [Compound 11]				< 100	< 100	
CC(C)C[C@@H]1NC(=O)[C@H](Cc2c[nH]cn2)NC(=O)[C@H](Cc2c[nH]c3ccccc23)NC(=O)[C@H](C)NC(=O)[C@@H]2CSSC[C@H](NC(=O)[C@H](Cc3c[nH]c4ccccc34)NC(=O)[C@H](C(C)C)NC(=O)[C@H](CC(C)C)NC(=O)[C@H](CCC(=O)O)NC(=O)CNC1=O)C(=O)N[C@@H]([C@@H](C)O)C(=O)N1CCC[C@@H]1C(=O)N1C[C@@H](NC(=O)COCCOCCOCC(=O)NC(COCCC(=O)NCCOCCOCCOCCOC[C@H]3OC[C@H](Nc4cncc(C(F)(F)F)n4)[C@@H](O)[C@H]3O)COCCC(=O)NCCOCCOCCOCCOC[C@H]3OC[C@H](Nc4cncc(C(F)(F)F)n4)[C@@H](O)[C@H]3O)C[C@H]1C(=O)N[C@@H](CC(=O)O)C(=O)N2 [Compound 40]				< 100	< 100	
